Results taken from patent publication US20100120700A1, “METHODS AND COMPOSITIONS FOR TREATING CERVICAL CANCER” (priority 2000, published 2010).
“And” between values parts separate entries of the source, which are not always exact repeats. Identical values can stand only once.

What was measured:
Assay in all cases: G assay PDZ-PL binding
Conditions in all cases: peptide 10 uM, protein 5
[1] = target: T1, EBP50 #167.2 domain 1 (Homo sapiens, UniProt O14745)
T1 construct: made in house; host or cells: E. coli (DH5alpha or BL-21)
T1 sequence (O14745 with tags, fused parts or gaps): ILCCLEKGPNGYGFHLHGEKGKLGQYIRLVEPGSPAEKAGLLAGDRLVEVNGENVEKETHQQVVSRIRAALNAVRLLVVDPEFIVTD
In short: (§1)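 Specific PDZ–peptide binding is taken as replicate mean signal exceeding GST-only background by standard-error criteria. Biotinylated PL peptides (20 uM; 10 uM under G′ conditions) bind to plate-captured GST/PDZ fusion protein and are detected with streptavidin-HRP at 450 nm.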

[2] = target: T2, PAR3 #182.1 domain 3 (Homo sapiens, UniProt Q8TEW0)
T2 construct: made in house; host or cells: E. coli (DH5alpha or BL-21)
T2 sequence (Q8TEW0 579-681): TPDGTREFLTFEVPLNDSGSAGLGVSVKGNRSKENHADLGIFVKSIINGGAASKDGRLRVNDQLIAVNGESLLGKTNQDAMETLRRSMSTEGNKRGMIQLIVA
In short: as §1

[3] = target: T3, Shroom domain 1 (Homo sapiens, UniProt Q8TF72)
T3 construct: made in house; host or cells: E. coli (DH5alpha or BL-21)
T3 sequence (Q8TF72 26-116): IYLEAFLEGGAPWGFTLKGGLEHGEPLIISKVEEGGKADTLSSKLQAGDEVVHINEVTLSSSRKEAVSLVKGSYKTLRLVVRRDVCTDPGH
In short: as §1

[4] = target: T4, DLG1 domain 3 (Homo sapiens, UniProt Q12959)
T4 construct: made in house; host or cells: E. coli (DH5alpha or BL-21)
In short: as §1

[5] = target: T5, ZO-1 domain 2 (Homo sapiens, UniProt Q07157, DEL264-264)
T5 construct: made in house; host or cells: E. coli (DH5alpha, BL21 or JM109)
T5 sequence (Q07157 with tags, fused parts or gaps DEL264-264): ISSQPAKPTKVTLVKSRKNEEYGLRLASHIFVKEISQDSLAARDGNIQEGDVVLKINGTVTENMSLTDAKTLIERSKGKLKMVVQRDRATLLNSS
In short: as §1

[6] = target: T6, MINT1 domain 2 (Homo sapiens, UniProt Q02410)
T6 construct: made in house; host or cells: E. coli (DH5alpha, BL21 or JM109), vector pGEX-3X
T6 sequence (Q02410 with tags, fused parts or gaps): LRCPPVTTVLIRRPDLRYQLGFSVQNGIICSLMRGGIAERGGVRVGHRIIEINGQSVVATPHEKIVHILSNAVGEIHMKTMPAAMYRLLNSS
In short: as §1

[7] = target: T7, GTPase domain 1 (Homo sapiens, UniProt Q96FS4)
T7 construct: made in house; host or cells: E. coli (DH5alpha, BL21 or JM109)
T7 sequence (Q96FS4 680-767): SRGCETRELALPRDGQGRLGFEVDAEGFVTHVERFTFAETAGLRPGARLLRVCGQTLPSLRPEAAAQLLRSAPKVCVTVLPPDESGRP
In short: as §1

[8] = target: T8, PSD95 domain 1 (Homo sapiens, UniProt P78352)
T8 construct: made in house; host or cells: E. coli (DH5alpha, BL21 or JM109), vector pGEX-3X
T8 sequence (P78352 62-156): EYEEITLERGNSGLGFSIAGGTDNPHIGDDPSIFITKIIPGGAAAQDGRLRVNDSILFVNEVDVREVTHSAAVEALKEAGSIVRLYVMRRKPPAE
In short: as §1

[9] = target: T9, KIAA0545 domain 1 (Homo sapiens, UniProt O60292)
T9 construct: made in house; host or cells: E. coli (DH5alpha or BL-21)
T9 sequence (O60292 955-1050): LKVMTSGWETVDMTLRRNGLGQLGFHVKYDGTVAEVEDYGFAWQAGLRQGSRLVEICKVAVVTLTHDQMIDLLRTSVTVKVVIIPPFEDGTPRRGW
In short: as §1

[10] = target: T10, FLJ11215 domain 1 (Homo sapiens, UniProt Q9NUP9)
T10 construct: made in house; host or cells: E. coli (DH5alpha, BL21 or JM109), vector pGEX-3X
T10 sequence (Q9NUP9 86-182): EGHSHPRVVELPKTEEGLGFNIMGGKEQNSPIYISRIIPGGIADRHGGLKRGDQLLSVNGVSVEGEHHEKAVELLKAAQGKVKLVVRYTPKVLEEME
In short: as §1

[11] = target: T11, TAX IP 2 domain 1 (Homo sapiens, UniProt O14908)
T11 construct: made in house; host or cells: E. coli (DH5alpha, BL21 or JM109)
T11 sequence (O14908 131-216): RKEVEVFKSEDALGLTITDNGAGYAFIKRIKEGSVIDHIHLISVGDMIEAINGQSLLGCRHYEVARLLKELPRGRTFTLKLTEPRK
In short: as §1

[12] = target: T12, NeDLG domain 1 (Homo sapiens, UniProt Q92796, D190E)
T12 construct: made in house; host or cells: E. coli (DH5alpha, BL21 or JM109)
T12 sequence (Q92796 with tags, fused parts or gaps D190E): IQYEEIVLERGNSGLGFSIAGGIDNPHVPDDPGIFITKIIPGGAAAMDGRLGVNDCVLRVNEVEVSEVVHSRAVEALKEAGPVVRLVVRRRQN
In short: as §1

[13] = target: T13, CASK domain 1 (Homo sapiens, UniProt O14936)
T13 construct: made in house; host or cells: E. coli (DH5alpha or BL-21)
T13 sequence (O14936 486-575): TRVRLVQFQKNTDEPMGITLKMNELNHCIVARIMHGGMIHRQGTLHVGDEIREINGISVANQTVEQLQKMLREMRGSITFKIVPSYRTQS
In short: as §1

[14] = target: T14, KIAA0147 domain 2 (Homo sapiens, UniProt Q14160)
T14 construct: made in house; host or cells: E. coli (DH5alpha or BL-21)
T14 sequence (Q14160 856-952): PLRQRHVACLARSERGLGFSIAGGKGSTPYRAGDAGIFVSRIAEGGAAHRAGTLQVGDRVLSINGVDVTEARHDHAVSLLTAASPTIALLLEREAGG
In short: as §1

20 mer peptide corresponding to the C-terminus of HPV16 E6 (PDZ ligand), biotinylated in binding assays; ends SSRTRRETQL (SEQ ID NO: 13) [HPV E6 #16]
Ave OD ([1]; A450 nm): 0.3805 and 0.3555 | OD S/N ([1]; vs GST only well): 1.94 and 2.28 | Ave OD ([2]; A450 nm): 0.445 | OD S/N ([2]; vs GST only well): 2.07 | Ave OD ([3]; A450 nm): 0.361 | OD S/N ([3]; vs GST only well): 3.25 | Ave OD ([4]; A450 nm): 0.3975 | OD S/N ([4]; vs GST only well): 2.45 | Ave OD ([5]; A450 nm): 0.518 | OD S/N ([5]; vs GST only well): 3.02 | Ave OD ([6]; A450 nm): 0.5925 | OD S/N ([6]; vs GST only well): 2.76 and 2.24 | Ave OD ([7]; A450 nm): 0.3505 | OD S/N ([7]; vs GST only well): 1.12 | Ave OD ([8]; A450 nm): 0.942 | OD S/N ([8]; vs GST only well): 4.81 | Ave OD ([9]; A450 nm): 0.4395 | OD S/N ([9]; vs GST only well): 3.96 | Ave OD ([10]; A450 nm): 0.449 and 0.666 | OD S/N ([10]; vs GST only well): 2.77 and 2.74 | Ave OD ([11]; A450 nm): 0.5085 and 0.478 | OD S/N ([11]; vs GST only well): 2.37 and 2.48 | Ave OD ([12]; A450 nm): 0.5165 | OD S/N ([12]; vs GST only well): 1.98 | Ave OD ([13]; A450 nm): 0.36 | OD S/N ([13]; vs GST only well): 1.15 | Ave OD ([14]; A450 nm): 0.3745 | OD S/N ([14]; vs GST only well): 2.46
